This assay addresses T1, Estrogen receptor (Homo sapiens) (UniProt P03372).
T1 sequence (whole entry): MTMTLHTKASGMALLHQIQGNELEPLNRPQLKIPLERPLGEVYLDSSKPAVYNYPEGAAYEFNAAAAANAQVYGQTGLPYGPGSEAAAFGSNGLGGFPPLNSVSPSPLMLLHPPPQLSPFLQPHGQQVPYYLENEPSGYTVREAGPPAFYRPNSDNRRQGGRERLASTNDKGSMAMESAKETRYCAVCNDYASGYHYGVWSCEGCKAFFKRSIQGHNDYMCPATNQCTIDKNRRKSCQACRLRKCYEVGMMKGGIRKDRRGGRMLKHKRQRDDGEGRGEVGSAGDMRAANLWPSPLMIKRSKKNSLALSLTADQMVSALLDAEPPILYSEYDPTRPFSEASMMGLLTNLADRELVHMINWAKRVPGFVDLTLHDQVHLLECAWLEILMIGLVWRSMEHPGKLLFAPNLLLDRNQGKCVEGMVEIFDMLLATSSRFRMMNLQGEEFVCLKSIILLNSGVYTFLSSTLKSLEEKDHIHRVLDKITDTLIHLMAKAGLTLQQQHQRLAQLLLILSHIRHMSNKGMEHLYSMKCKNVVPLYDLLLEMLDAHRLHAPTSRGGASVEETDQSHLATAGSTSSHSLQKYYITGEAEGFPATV
The assay is described as follows: Effect on human Gal4-fused ERalpha at 10 uM by luciferase reporter gene assay.

The source made the active and inactive calls. The calls are words filed in the database; no cut-off is given here.

With `CC(C)=CCCC1=C[C@@H](C/C(C)=C/CC[C@]2(C)C=Cc3cc(O)cc(C)c3O2)OC1=O` [2'-EPI-TUBERATOLIDE B], the result was inactive.
`CC(C)=CCC/C(=C/CC/C(C)=C/CC[C@]1(C)C=Cc2cc(O)cc(C)c2O1)C(=O)O` [(R)-SARGACHROMENOL]: the result was inactive.
As for `CC(C)=CCC/C(=C/CC/C(C)=C/CC[C@@]1(C)C=Cc2cc(O)cc(C)c2O1)C(=O)O` [(S)-SARGACHROMENOL], the result was inactive.
As for `CC(=O)CC/C=C(\C)C[C@@H]1C=C(CCC=C(C)C)C(=O)O1` [TUBERATOLIDE A], the entry is “inactive”.
As to `CC(C)=CCCC1=C[C@@H](C/C(C)=C/CC[C@@]2(C)C=Cc3cc(O)cc(C)c3O2)OC1=O` [TUBERATOLIDE B], the outcome was inactive.
As for `CC(C)=CCCC1=C[C@@H](C/C(C)=C/CC/C(C)=C/CC2=CC(=O)C=C(C)C2=O)OC1=O` [YEZOQUINOLIDE], the entry is “inactive”.

For the origin of these results see ChEMBL document CHEMBL1667725, “Tuberatolides, potent FXR antagonists from the Korean marine tunicate Botryllus tuberatus” (J Nat Prod, 2011).
